For test [1], the target named is T1, Squalene synthase (Rattus norvegicus, UniProt Q02769).
T1 sequence (Q02769 whole entry): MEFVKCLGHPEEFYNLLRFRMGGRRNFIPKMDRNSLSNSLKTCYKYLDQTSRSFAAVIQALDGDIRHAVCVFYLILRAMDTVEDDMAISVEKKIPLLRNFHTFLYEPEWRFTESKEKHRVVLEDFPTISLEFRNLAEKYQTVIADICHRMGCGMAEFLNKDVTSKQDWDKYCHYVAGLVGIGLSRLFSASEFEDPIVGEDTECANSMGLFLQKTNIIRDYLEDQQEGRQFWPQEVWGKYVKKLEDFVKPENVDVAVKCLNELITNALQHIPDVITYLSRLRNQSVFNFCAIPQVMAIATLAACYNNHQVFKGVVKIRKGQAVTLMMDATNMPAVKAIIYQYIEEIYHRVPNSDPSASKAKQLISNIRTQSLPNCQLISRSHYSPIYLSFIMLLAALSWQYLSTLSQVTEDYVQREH
The test is described as follows: Tested in vitro for the inhibition of Squalene synthase activity, measured using juvenile male rat liver microsomes. Also noted: species or system Microsome. For orientation: Microsomes from liver hold many membrane-bound enzymes, among them those of drug oxidation.

In test [2] the target is T1, Squalene synthase. The test is described as follows: Inhibition of Squalene synthase activity in juvenile male rat liver microsomes. Also noted: species or system Microsome.
The next test deals with Rattus norvegicus. The test is described as follows: Tested for daily dose at which compound shows 50% reduction in serum cholesterol levels after oral administration. In kind it is functional.

What is called IC50 is the concentration needed to halve the response being measured. A low value points to higher potency.

Some results are limits rather than exact numbers.

`CC[C@H](C)C[C@H](C)CCC(=O)O[C@@H]1[C@@H](O)[C@@]2(CC/C(C)=C/[C@@H](C)Cc3ccccc3)O[C@H](C(=O)O)[C@@](O)(C(=O)O)[C@]1(C(=O)O)O2` returned an IC50 at Squalene synthase [1] of 63 nM. Compound `CC[C@H](C)C[C@H](C)CCC(=O)O[C@@H]1[C@@H](O)[C@@]2(CCO)O[C@H](C(=O)O)[C@@](O)(C(=O)O)[C@]1(C(=O)O)O2` displayed an IC50 against Squalene synthase [2] above 500 nM. Same read-out and setting: the figure for `CCCC(=O)CCC[C@]12O[C@H](C(=O)O)[C@@](O)(C(=O)O)[C@](C(=O)O)(O1)[C@H](OC(=O)CC[C@@H](C)C[C@@H](C)CC)[C@H]2O` is above 500 nM; for `CC[C@H](C)C[C@H](C)CCC(=O)O[C@@H]1[C@@H](O)[C@@]2(CCC(C)C(=O)CCc3ccccc3)O[C@H](C(=O)O)[C@@](O)(C(=O)O)[C@]1(C(=O)O)O2` (stereo partly drawn) it is 48 nM. Compound `C=C(CC[C@]12O[C@H](C(=O)O)[C@@](O)(C(=O)O)[C@](C(=O)O)(O1)[C@H](OC(=O)/C=C/[C@@H](C)C[C@@H](C)CC)[C@H]2O)[C@H](OC(C)=O)[C@@H](C)Cc1ccccc1` had a Dose in the test with Rattus norvegicus of 10 mg/kg. For `CC[C@H](C)C[C@H](C)CCC(=O)O[C@@H]1[C@@H](O)[C@@]2(CCC(C)C(=O)[C@@H](C)Cc3ccccc3)O[C@H](C(=O)O)[C@@](O)(C(=O)O)[C@]1(C(=O)O)O2` (single isomer, unassigned; isomer 2), it took 130 nM to reach half-maximal inhibition against Squalene synthase [1] (IC50).

For `CC[C@H](C)C[C@H](C)CCC(=O)O[C@@H]1[C@@H](O)[C@@]2(CCC(=O)[C@H](O)[C@@H](C)Cc3ccccc3)O[C@H](C(=O)O)[C@@](O)(C(=O)O)[C@]1(C(=O)O)O2`, it took 5 nM to reach half-maximal inhibition against Squalene synthase [1] (IC50). For `CCCCCCC(=O)CCC[C@]12O[C@H](C(=O)O)[C@@](O)(C(=O)O)[C@](C(=O)O)(O1)[C@H](OC(=O)CC[C@@H](C)C[C@@H](C)CC)[C@H]2O`, the IC50 on Squalene synthase [2] was above 500 nM. The compound `CC[C@H](C)C[C@H](C)CCC(=O)O[C@@H]1[C@@H](O)[C@@]2(CCCC(=O)CCc3ccccc3)O[C@H](C(=O)O)[C@@](O)(C(=O)O)[C@]1(C(=O)O)O2` yielded an IC50 at Squalene synthase [2] of 56 nM. Same read-out and setting: then `C=C(CC[C@]12O[C@H](C(=O)O)[C@@](O)(C(=O)O)[C@](C(=O)O)(O1)[C@H](OC(=O)/C=C/[C@@H](C)C[C@@H](C)CC)[C@H]2O)[C@H](O)[C@@H](C)Cc1ccccc1`, with 5 nM; and `CC[C@H](C)C[C@H](C)CCC(=O)O[C@@H]1[C@@H](O)[C@@]2(CCCC(=O)Cc3ccccc3)O[C@H](C(=O)O)[C@@](O)(C(=O)O)[C@]1(C(=O)O)O2`, with above 500 nM; and `CC[C@H](C)C[C@H](C)CCC(=O)O[C@@H]1[C@@H](O)[C@@]2(CCCC(=O)C(C)Cc3ccccc3)O[C@H](C(=O)O)[C@@](O)(C(=O)O)[C@]1(C(=O)O)O2` (stereo partly drawn), with 29 nM. `CC[C@H](C)C[C@H](C)CCC(=O)O[C@@H]1[C@@H](O)[C@@]2(CCC(O)[C@H](O)[C@@H](C)Cc3ccccc3)O[C@H](C(=O)O)[C@@](O)(C(=O)O)[C@]1(C(=O)O)O2` (stereo partly drawn) registered an IC50 against Squalene synthase [1] of 4 nM. Compound `CC[C@H](C)C[C@H](C)CCC(=O)O[C@@H]1[C@@H](O)[C@@]2(CCC(C)=O)O[C@H](C(=O)O)[C@@](O)(C(=O)O)[C@]1(C(=O)O)O2` displayed an IC50 at Squalene synthase [2] of 470 nM. That is a sub-micromolar value. In the case of `CC[C@H](C)C[C@H](C)CCC(=O)O[C@@H]1[C@@H](O)[C@@]2(CCC(C)C(=O)[C@@H](C)Cc3ccccc3)O[C@H](C(=O)O)[C@@](O)(C(=O)O)[C@]1(C(=O)O)O2` (stereo in doubt), on Squalene synthase [1], the IC50 is 16 nM. This counts as double-digit nanomolar. Still for that read-out and setting: then `C=C(CC[C@]12O[C@H](C(=O)O)[C@@](O)(C(=O)O)[C@](C(=O)O)(O1)[C@H](OC(=O)CC[C@@H](C)C[C@@H](C)CC)[C@H]2O)[C@H](O)[C@@H](C)Cc1ccccc1`, with 2 nM; and `CC[C@H](C)C[C@H](C)CCC(=O)O[C@@H]1[C@@H](O)[C@@]2(C/C=C(\C)[C@H](O)[C@@H](C)Cc3ccccc3)O[C@H](C(=O)O)[C@@](O)(C(=O)O)[C@]1(C(=O)O)O2`, with 17 nM. The compound `CC[C@H](C)C[C@H](C)CCC(=O)O[C@@H]1[C@@H](O)[C@@]2(CCCC(=O)CCCc3ccccc3)O[C@H](C(=O)O)[C@@](O)(C(=O)O)[C@]1(C(=O)O)O2` showed an IC50 against Squalene synthase [2] of 152 nM.

These data come from ChEMBL document CHEMBL1127148, “The squalestatins: novel inhibitors of squalene synthase. The optimal C1 chain-length requirements” (Bioorg Med Chem Lett, 1993).
